Assay results as given in PMC4816084 (Bioorganic & medicinal chemistry letters, 2016).
Where two headings read alike, the source gives them in different places.

What was measured:
[1] = tested on: dizocilpine-induced prepulse inhibition deficits; conditions: mouse, with D-serine exposure enhancement; cited from earlier work
[2] = cited from earlier work; for susceptibility to glucuronidation (in words): liver microsomes with UDPGA, 60 min
plasma D-serine levels [3] = conditions: mice, oral co-administration with D-serine; cited from earlier work
[4] = mice; cited from earlier work
[5] = Binding to mouse plasma protein; assay type: in vitro ADME
[6] = Metabolic stability in mouse liver microsomes; assay type: in vitro ADME; conditions: for susceptibility to glucuronidation (in words): liver microsomes with UDPGA; for stability in the presence of NADPH (in words): mouse liver microsomes
[7] = Plasma pharmacokinetics after oral administration in mice; conditions: 30 mg/kg po
plasma D-serine levels [8] = experiment: Effect on D-serine plasma pharmacokinetics after oral co-administration in mice; assay type: in vivo; conditions: inhibitor and D-serine both 30 mg/kg po
recombinant human DAAO = recombinant human DAAO (Homo sapiens, UniProt P14920); experiment: Inhibition of recombinant human DAAO; assay type: biochemical; conditions: human DAAO IC50 ratio
Chain of recombinant human DAAO (P14920 whole entry): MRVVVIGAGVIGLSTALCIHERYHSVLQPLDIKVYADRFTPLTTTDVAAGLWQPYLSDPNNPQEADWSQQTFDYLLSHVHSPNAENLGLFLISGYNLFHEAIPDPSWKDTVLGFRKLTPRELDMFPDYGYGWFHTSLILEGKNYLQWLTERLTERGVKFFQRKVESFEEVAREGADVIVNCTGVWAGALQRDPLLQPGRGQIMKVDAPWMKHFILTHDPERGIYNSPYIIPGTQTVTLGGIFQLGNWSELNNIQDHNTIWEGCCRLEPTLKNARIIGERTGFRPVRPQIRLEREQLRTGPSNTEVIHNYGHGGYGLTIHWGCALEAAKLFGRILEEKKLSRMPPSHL

O=c1[nH]oc2cc(Cl)ccc12 [CBIO, 6-chloro-1,2-benzisoxazol-3(2H)-one]
effect on dizocilpine-induced prepulse inhibition deficits [1]: attenuation

O=c1cc(CSc2ccc(Cl)c(Cl)c2)occ1O [Compound 1]
susceptibility to glucuronidation (in words) [2]: extensively glucuronidated
% remaining after 60 min w/UDPGA ([2]; mouse liver microsomes): 5%

O=c1[nH]nc(CCc2cc(F)cc(F)c2)cc1O [Compound 2b]
susceptibility to glucuronidation (in words) [2]: some degree of metabolic stability
% remaining after 60 min w/NADPH ([2]; mouse liver microsomes, NADPH): 92%
% remaining after 60 min w/UDPGA ([2]; mouse liver microsomes): 59%

O=c1[nH]c(=O)n(Cc2cccc3ccccc23)nc1O [Compound 3]
degree of enhancement in plasma D-serine levels (plasma D-serine levels [3]): 2.2 fold
susceptibility to glucuronidation (in words) [2]: complete resistance to glucuronidation
AUC following oral administration [4]: 12900 ng·h/mL

O=c1[nH]nc(CCc2ccccc2)nc1O [Compound 6b, 6-hydroxy-3-phenethyl-1,2,4-triazin-5(2H)-one]
binding to mouse plasma protein [5]: 74%
susceptibility to glucuronidation (in words) [6]: resistant to glucuronidation
stability in the presence of NADPH (in words) [6]: stable
time of Cmax after administration [7]: 30 min
D-serine AUC0–6hr on co-administration (plasma D-serine levels [8]): 74.2 µg·h/mL

O=c1[nH]nc(SCc2ccc(-c3ccccc3)cc2)nc1O [Compound 6j]
fold more potent than the corresponding meta-phenyl derivative 6k (recombinant human DAAO): 8 fold

O=c1[nH]nc(SCc2ccc3cc(F)ccc3c2)nc1O [Compound 6m, 3-((6-fluoronaphthalen-2-yl)methylthio)-6-hydroxy-1,2,4-triazin-5(2H)-one]
susceptibility to glucuronidation (in words) [6]: resistant to glucuronidation
stability in the presence of NADPH (in words) [6]: stable
